From patent US9453226B2, “Protection of cells from Alu-RNA-induced degeneration and inhibitors for protecting cells” (UNIVERSITY OF KENTUCKY RESEARCH FOUNDATION, priority 2011, dated 2016) come the findings set out here.

“Also recorded” adds a separate entry of the source. d = 2'-deoxy (DNA); r = 2'-OH (RNA)

The test system of one data set is mitochondrial ROS. As to the kind of experiment: Mitochondrial ROS in human RPE cells (MitoSOX Red). The class given is cell-based. The method, then:
Cellular ROS production was assessed using the ROS-specific probe 2′7′-dichlorodihydrofluorescin diacetate (H2DCFDA, BioChemica, Fluka). Mitochondrial ROS production was assessed using MitoSOX™ Red (Invitrogen). Sub-confluent human RPE cells were transfected with pNull or pAlu. After 24 h cells were loaded for 10 min at 37° C. with 10 μM H2DCFDA or MitoSOX™ Red (Invitrogen) mitochondrial superoxide indicator for live-cell imaging and washed twice with PBS. For H2DCFDA, fluorescence was recorded in 96-well plate using with a Synergy 4 reader (Biotek) using a FITC filter (excitation 485 nm, emission 538 nm). To visualize respiring mitochondria for colocalization with the mitochondrial ROS signal, after PBS wash cells were incubated with MitoTracker Deep Red™ (Invitrogen) for 30 min at 37° C. and then washed twice with PBS. The fluorescent signals were detected using Leica SP-5 or Zeiss Axio Observer Z1 microscopes. Phagosomal ROS production was assessed using the Fc-OXYBURST Green™ assay (Invitrogen). Sub-confluent human RPE cells were transfected with pNull or pAlu, or treated with PMA (0.5 μg/ml; Sigma-Aldrich). […] The total fluorescence from the cells was measured immediately after adding Fc-OXYBURST Green™ with a Synergy 4 reader (Biotek) using FITC filter (excitation 485 nm, emission 538 nm).

Another data set relates to VDAC2. As to the kind of experiment: VDAC2 mRNA knockdown in human RPE cells. In kind it is cell-based. The following applies: compared to control (Luc) siRNA. The source says:
(§1) Total RNA was extracted from tissues or cells using Trizol reagent (Invitrogen) according to manufacturer's recommendations, DNase treated and reverse transcribed (QuantiTect, Qiagen). The RT products (cDNA) were amplified by real-time quantitative PCR (Applied Biosystems 7900 HT Fast Real-Time PCR system) with Power SYBR green Master Mix. Oligonucleotide primers specific for human IL1B (forward 5′-[…]-3′ and reverse 5′-[…]-3′), human IL18 (forward 5′-[…]-3′ and reverse 5′-[…]-3′), human NLRP3 (forward 5′-[…]-3′ and reverse 5′-[…]-3′), human PYCARD (forward 5′-[…]-3′ and reverse 5′-[…]-3′), human VDAC1 (forward 5′-[…]-3′ and reverse 5′-[…]-3′), human VDAC2 (forward 5′-[…]-3′ and reverse 5′-[…]-3′), human VDAC3 (forward 5′-[…]-3′ and reverse 5′-[…]-3′), human 18S rRNA (forward 5′-[…]-3′ and reverse 5′-[…]-3′), mouse Myd88 (forward 5′-[…]-3′ and reverse 5′-[…]-3′), mouse Nlrp3 (forward 5′-[…]-3′ and reverse 5′-[…]-3′), mouse Il18 (forward 5′-[…]-3′ and reverse 5′-[…]-3′), and mouse 18S rRNA (forward 5′-[…]-3′ and reverse 5′-[…]-3′) were used. […] For negative controls, no RT products were used as templates in the QPCR and verified by the absence of gel-detected bands. Relative expressions of target genes were determined by the 2^−ΔΔCt method.

The test system of a further data set is NLRP3 and IL18 mRNAs. Kind of data set: NLRP3 and IL18 mRNA in human RPE cells (real-time RT-PCR). In kind it is cell-based.
Source text: Transcript abundance was quantified by real-time RT-PCR using an Applied Biosystems 7900 HT Fast Real-Time PCR system by the 2^−ΔΔCt method.
as §1, with “used. The QPCR cycling conditions were 50° C. for 2 min, 95° C. for 10 min followed by 40 cycles of a two-step amplification program (95° C. for 15 s and 58° C. for 1 min). At the end of the amplification, melting curve analysis was applied using the dissociation protocol from the Sequence Detection system to exclude contamination with unspecific PCR products.” for “used.”
On the technique in general: Real-time PCR tracks product formation cycle by cycle.

The subject of the next data set is VDAC1. As to the kind of experiment: VDAC1 mRNA knockdown in human RPE cells. The following applies: compared to control (Luc) siRNA. In kind it is cell-based.
Source text: as §1

A further data set has as its system PYCARD. Kind of data set: PYCARD knockdown in human RPE cells. In kind it is cell-based. Conditions: compared to control siRNAs. As for the experimental part: (§2) Tissues or cells were homogenized in lysis buffer (10 mM Tris base, pH 7.4, 150 mM NaCl, 1 mM EDTA, 1 mM EGTA, 1% Triton X-100, 0.5% NP-40, protease and phosphatase inhibitor cocktail (Roche)). Protein concentrations were determined using a Bradford assay kit (Bio-Rad) with bovine serum albumin as a standard. Proteins (40-100 μg) were run on NuPAGE Bis-Tris gels (Invitrogen) and transferred to Immun-Blot PVDF membranes (Bio-Rad). Cells were scraped in hot Laemmli buffer (62.5 mM Tris base, pH 6.8, 2% SDS, 5% 2-Mercaptoethanol, 10% Glycerol, 0.01% Bromophenol Blue). Samples were boiled and run on 4-20% NuPAGE Tris-Glycine gels (Invitrogen). The transferred membranes were blocked for 1 h at RT and incubated with antibodies against human Caspase-1 (1:500; Invitrogen), mouse Caspase 1 (1:500; MBL), NLRP3 (1:1000; Enzo Life Sciences), PYCARD (1:1000, RayBiotech), phospho-IRAK1 (S376) (1:500, Thermo Scientific), phospho-IRAK4 (T345) (1:500, AbboMax), DICER1 (1:2,000; Bethyl), MyD88 (1:1,000; Cell Signaling), and mouse IL-18 (1:200; MBL) at 4° C. overnight. Protein loading was assessed by immunoblotting using an anti-Vinculin antibody (1:1,000; Sigma-Aldrich). The secondary antibodies were used (1:5,000) for 1 h at RT. The signal was visualized by enhanced chemiluminescence (ECL plus) and captured by VisionWorksLS Image Acquisition and Analysis software (Version 6.7.2, UVP, LLC).

The next data set has as its system human RPE cells. Conditions: human RPE cells transfected with pAlu. The method, then:
All cell cultures were maintained at 37° C. and 5% CO2. Primary mouse RPE cells were isolated as previously described (Yang et al., 2009) and grown in Dulbecco Modified Eagle Medium (DMEM) supplemented with 20% FBS and standard antibiotics concentrations. Primary human RPE cells were isolated as previously described (Yang et al., 2008) and maintained in DMEM supplemented with 10% FBS and antibiotics. HeLa cells were maintained in DMEM supplemented with 20% FBS and standard antibiotics concentrations. THP-1 cells were cultured in RPMI 1640 medium supplemented with 10% FBS and antibiotics.
MTS assays were performed using the CellTiter 96 AQueous One Solution Cell Proliferation Assay (Promega) according to the manufacturer's instructions. For examining the cytoprotective effect of glycine in Alu RNA induced cell death, human RPE cells were transfected with pNull/pAlu. At 6 h post-transfection the cells were incubated with complete media containing glycine (5 mM) or vehicle, and cell viability was assessed after 24 h. Similarly, human RPE cells primed with LPS (5 μg/ml for 6 h) were treated with ATP (25 μM) in the presence of glycine containing media (5 mM). 30 min post ATP cell viability was assessed as described above.
MTS assays were performed using the CellTiter 96 AQueous One Solution Cell Proliferation Assay (Promega) according to the manufacturer's instructions.

The next data set concerns DICER1. As to the kind of experiment: DICER1 abundance after antisense treatment of human RPE cells. The class given is cell-based. The method, then: as §2
For a further data set, the system named is IRAK1/4 phosphorylation. Kind of data set: IRAK1/4 phosphorylation in human RPE cells (Western blot). In kind it is cell-based. Conditions: human RPE cells treated with DICER1 antisense. The method, then: (§3) Protein abundance was assessed by Western blot analysis using antibodies against Caspase-1 (1:500; Invitrogen), pIRAK1 (1:500; Thermo Scientific), pIRAK4 (1:500, Abbomax), PYCARD (1:200, Santa Cruz Biotechnology), NLRP3 (1:500, Enzo Life Sciences) and Vinculin (1:1,000; Sigma-Aldrich). Caspase-1 activity was visualized using Caspalux1 E1D2 (Oncolmmunin) according to manufacturer's instructions.
as §2
(In western blotting, separated proteins are transferred to a membrane and probed.)

Another data set deals with T1, Caspase-1 (Homo sapiens, UniProt P29466).
T1 construct: Primary human RPE cells were isolated as previously described; endogenous in cells; host or cells: primary human RPE cells
T1 sequence (P29466 120-297 limits assumed): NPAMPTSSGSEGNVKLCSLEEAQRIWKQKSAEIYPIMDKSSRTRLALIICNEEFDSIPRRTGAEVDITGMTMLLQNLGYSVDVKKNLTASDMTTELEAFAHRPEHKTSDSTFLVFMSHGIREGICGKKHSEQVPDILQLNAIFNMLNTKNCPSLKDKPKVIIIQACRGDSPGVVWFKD
T1 sequence (P29466 317-404 limits assumed): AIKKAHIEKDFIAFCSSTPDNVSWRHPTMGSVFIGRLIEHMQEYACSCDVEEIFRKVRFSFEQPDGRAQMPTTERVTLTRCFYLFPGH
Kind of data set: Caspase-1 activation in human RPE cells (Western blot p20, Caspalux substrate cleavage). The class given is cell-based. Conditions: compared to control AS. As for the experimental part: as §3, §2
Caspase-1 activity. Caspase-1 activity was visualized by incubating cells with Caspalux1E1D2 reagent (Oncolmmunin) according to the manufacturer's instructions. Caspalux1E1D2 signal was quantified reading the fluorescence (excitation 552 nm, emission 580 nm) using a Synergy 4 reader (Biotek). Quantification of fluorescence from images was performed by converting images into grayscale in Adobe Photoshop CSS, and measuring the integrated density of black and white images using ImageJ software (NIH) (Bogdanovich et al., 2008).

A further data set concerns VDAC3. As to the kind of experiment: VDAC3 mRNA knockdown in human RPE cells. Conditions: compared to control (Luc) siRNA. In kind it is cell-based.
Source text: as §1

Another data set concerns NLRP3. As to the kind of experiment: NLRP3 knockdown in HEK293 cells transfected with an NLRP3 expression vector. The class given is cell-based. Conditions: compared to control siRNAs. As for the experimental part:
as §2

The next data set relates to RPE. As to the kind of experiment: Alu RNA-induced RPE degeneration in wild-type mice, inhibitors given intravitreously. The class given is in vivo. Conditions: subretinal Alu RNA 1 μg; peptide 2 μg intravitreous.

Regarding “5′-CCCUGGAGUUGGAGGCUdTdT-3′ [VDAC2 siRNA]”, the “pAlu-induced mitochondrial ROS generation” value in the data set on mitochondrial ROS was “prevent; also recorded: impaired”. In the data set on VDAC2, the “abundance of VDAC2 mRNA” value is “reduced”. Moreover, the “pAlu-induced NLRP3 and IL18 mRNA upregulation” value in the data set on NLRP3 and IL18 mRNAs is “prevent; also recorded: impaired”.
For “5′-CGGAAUAGCAGCCAAGUdTdT-3′ [VDAC1 siRNA]”, in the data set on mitochondrial ROS, the “pAlu-induced mitochondrial ROS generation” value was “prevent; also recorded: impaired”. In addition, the “abundance of VDAC1 mRNA” value with VDAC1 is listed as “reduced”. For the same substance, the “pAlu-induced NLRP3 and IL18 mRNA upregulation” value in the data set with NLRP3 and IL18 mRNAs was “prevent; also recorded: impaired”.
On to “5′-GAAGCUCUUCAGUUUCAdTdT-3′ (GAAGCUCUUCAGUUUCATT; siRNA; sugars from the 5' end r17 d2, backbone not given here) [PYCARD siRNA]”, for which, in the data set on PYCARD, the “abundance of PYCARD” value is “reduced”. Besides, in the data set with human RPE cells, the “pAlu-induced human RPE cell death / loss of cell viability” value is recorded as “rescued”.
Take 5′-GCUGACCTTTTTGCTUCUCA-3′ [DICER1 AS]: the DICER1 abundance entry in the data set with DICER1 is “reduces DICER1”. Also, in the data set with IRAK1/4 phosphorylation, the “IRAK1 and IRAK4 phosphorylation” value is “increases IRAK1 and IRAK4 phosphorylation”. For the same substance, the “cleavage activity of Caspase-1 (Caspalux)” value at Caspase-1 is given as “increases cleavage activity of Caspase-1”.
For the substance “5′-GCUUUAAUCGAUGGGAAdTdT-3′ [VDAC3 siRNA]”, the “abundance of VDAC3 mRNA” value with VDAC3 is given as “reduced”.
Turning to “5′-GUUUGACUAUCUGUUCUdTdT-3′ (GUUUGACUAUCUGUUCUTT; siRNA; sugars from the 5' end r17 d2, backbone not given here) [NLRP3 siRNA]”, in the data set on NLRP3, the “abundance of NLRP3” value is “reduced”. Also, the “pAlu-induced human RPE cell death / loss of cell viability” value in the data set on human RPE cells is on record as “rescued”.
As for DRQIKIWFQNRRMKWKKRDVLPGTCVWSIASE, the “Alu RNA-induced RPE degeneration” value with RPE is on record as “blocked”.
